Reference: ChEMBL document CHEMBL1151005 (Bioorg Med Chem Lett, 1995)

Target: Human immunodeficiency virus type 1 reverse transcriptase (Human immunodeficiency virus 1, UniProt Q72547)
Assay: Inhibitory activity against HIV-1 Reverse transcriptase (RT) was determined

Row | IC50 [nM] | Structure (SMILES)
1 | 350 | CCN1c2cnccc2N(C)C(=O)c2cccnc21
2 | 1600 | CCN1c2ccncc2N(C)C(=O)c2cccnc21
3 | 6400 | CCN1c2cnccc2C(=O)N(C)c2cccnc21
